Measured values taken from US12581252B2, “Substituted pyrrolo[3,4-b]pyridines as PI3K-α inhibitors” (Relay Therapeutics, Inc., priority 2020, dated 2026).

target: H1047R PIK3CA enzyme (Homo sapiens, UniProt P42336, H1047R); assay: ADP-Glo Biochemical PIK3CA Kinase Assay
Sequence (P42336 whole entry H1047R): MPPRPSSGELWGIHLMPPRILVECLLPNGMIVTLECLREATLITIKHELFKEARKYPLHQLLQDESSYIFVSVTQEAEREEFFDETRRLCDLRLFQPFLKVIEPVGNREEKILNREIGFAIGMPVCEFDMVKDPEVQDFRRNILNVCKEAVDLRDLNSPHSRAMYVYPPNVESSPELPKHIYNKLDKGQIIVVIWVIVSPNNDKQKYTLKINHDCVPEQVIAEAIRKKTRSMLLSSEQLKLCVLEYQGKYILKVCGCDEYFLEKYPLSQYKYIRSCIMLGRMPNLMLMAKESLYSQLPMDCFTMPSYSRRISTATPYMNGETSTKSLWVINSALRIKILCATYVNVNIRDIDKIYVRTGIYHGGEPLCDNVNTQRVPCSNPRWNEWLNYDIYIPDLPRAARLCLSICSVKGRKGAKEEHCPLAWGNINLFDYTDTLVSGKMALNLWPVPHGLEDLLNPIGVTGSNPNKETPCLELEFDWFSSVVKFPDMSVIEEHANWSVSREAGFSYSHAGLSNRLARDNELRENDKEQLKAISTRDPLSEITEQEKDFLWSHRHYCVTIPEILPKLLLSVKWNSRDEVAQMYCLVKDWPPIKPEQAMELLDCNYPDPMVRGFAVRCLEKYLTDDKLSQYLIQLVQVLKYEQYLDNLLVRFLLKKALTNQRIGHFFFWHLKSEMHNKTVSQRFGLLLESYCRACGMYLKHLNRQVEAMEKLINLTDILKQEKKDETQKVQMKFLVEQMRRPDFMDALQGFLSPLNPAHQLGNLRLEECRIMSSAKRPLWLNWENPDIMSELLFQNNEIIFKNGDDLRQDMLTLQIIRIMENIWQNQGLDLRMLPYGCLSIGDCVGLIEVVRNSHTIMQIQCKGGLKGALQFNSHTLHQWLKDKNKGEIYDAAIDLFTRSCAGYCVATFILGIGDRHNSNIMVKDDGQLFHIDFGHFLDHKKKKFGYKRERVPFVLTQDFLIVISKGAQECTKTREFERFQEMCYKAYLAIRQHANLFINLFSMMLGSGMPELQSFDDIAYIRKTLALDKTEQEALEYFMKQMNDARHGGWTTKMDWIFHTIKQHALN
Sequence (P27986 whole entry partner): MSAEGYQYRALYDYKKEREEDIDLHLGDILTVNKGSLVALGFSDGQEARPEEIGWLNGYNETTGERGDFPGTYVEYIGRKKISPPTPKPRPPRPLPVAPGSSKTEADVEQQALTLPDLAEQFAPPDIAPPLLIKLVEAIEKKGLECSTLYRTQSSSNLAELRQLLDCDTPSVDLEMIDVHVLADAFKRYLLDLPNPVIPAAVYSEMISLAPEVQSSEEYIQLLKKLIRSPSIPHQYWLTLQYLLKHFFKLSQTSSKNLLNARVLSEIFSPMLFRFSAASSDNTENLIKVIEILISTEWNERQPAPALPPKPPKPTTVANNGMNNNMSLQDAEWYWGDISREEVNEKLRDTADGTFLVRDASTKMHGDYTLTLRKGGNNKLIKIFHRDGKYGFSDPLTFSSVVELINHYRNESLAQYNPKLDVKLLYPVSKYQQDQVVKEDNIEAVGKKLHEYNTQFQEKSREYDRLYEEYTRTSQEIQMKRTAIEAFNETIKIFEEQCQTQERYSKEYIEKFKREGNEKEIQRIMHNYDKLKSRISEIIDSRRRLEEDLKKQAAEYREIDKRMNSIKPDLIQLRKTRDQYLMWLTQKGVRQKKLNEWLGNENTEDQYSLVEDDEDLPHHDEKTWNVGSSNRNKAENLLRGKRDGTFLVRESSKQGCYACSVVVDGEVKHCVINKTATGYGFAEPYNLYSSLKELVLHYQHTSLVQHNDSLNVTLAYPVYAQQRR

IC50 [nM] | Compound
1000 to 10000 | O=C1N[C@H](c2cc(F)ccc2Cl)c2c(NC(=O)N3C[C@@H](O)c4cc(F)ccc43)cc(-n3nccn3)cc21 (single isomer, unassigned) [Compound I-2344]
100 to 500 | O=C(Nc1cc(-n2cc(F)cn2)nc2c1C(c1cc(F)ccc1Cl)NC2=O)c1cc(F)cc(C(F)(F)F)c1 (stereo not shown) [Compound I-354]
≤ 100 | O=C(Nc1cc(-c2ccc3ncnn3c2)cc2c1C(c1cc(F)ccc1Cl)NC2=O)c1cc(F)cc2c1NC(=O)C2(F)F (stereo not shown) [Compound I-1547]
≤ 100 | O=C(Nc1cc(-c2ccc3nc(C(F)F)cn3c2)cc2c1[C@H](c1cc(F)ccc1Cl)NC2=O)c1cc(F)cc(C(F)(F)F)c1 [Compound I-1929]
1000 to 10000 | Cc1ccccc1C1NC(=O)c2cccc(NC(=O)c3ncsc3Br)c21 (stereo not shown) [Compound I-452]
≤ 100 | O=C(O)COc1ncc(-c2cc(NC(=O)c3cc(F)cc(C(F)(F)F)c3)c3c(c2)C(=O)NC3c2cc(F)ccc2Cl)cn1 (stereo not shown) [Compound I-1390]
10000 to 100000 | N#CCOc1cc(-c2ccc3ncnn3c2)cc2c1C(c1cc(F)ccc1Cl)NC2=O (stereo not shown) [Compound I-2022]
≤ 100 | CC(C)n1cc(-c2cc(NC(=O)c3cc(F)cc(C(F)(F)F)c3)c3c(c2)C(=O)NC3c2cc(F)ccc2Cl)ccc1=O (stereo not shown) [Compound I-699]
1000 to 10000 | C[C@]1(O)CN(C(=O)Nc2cc(Br)cc3c2C(c2cc(F)ccc2Cl)NC3=O)c2ccccc21 (single isomer, unassigned) [Compound I-1508]
10000 to 100000 | O=C(Nc1cccc2c1[C@H](C1CCC(F)(F)CC1)NC2=O)c1cc(F)cc(C(F)(F)F)c1 (racemic) [Compound I-1836]
1000 to 10000 | O=C(Nc1cc(CS(=O)(=O)N2CCOCC2)cc2c1[C@@H](c1cc(F)ccc1Cl)NC2=O)c1cc(F)cc(C(F)(F)F)c1 [Compound I-1484]
10000 to 100000 | O=C1NC(c2cc(F)ccc2Cl)c2c(NC(=O)c3cc(Cl)cc4cccnc34)cc(Br)cc21 (stereo not shown) [Compound I-802]
500 to 1000 | O=C1NC(c2c(F)cccc2Cl)c2c(NC(=O)c3nsc4ccccc34)cccc21 (stereo not shown) [Compound I-99]
100 to 500 | O=C(Nc1cc(OC[C@H]2CCCN2)cc2c1C(c1cc(F)ccc1Cl)NC2=O)c1cc(F)cc(C(F)(F)F)c1 (mixture of isomers) [Compound I-1457]
100 to 500 | O=C(Nc1cc(-c2ccc3ncnn3c2)cc2c1C(c1cc(F)ccc1Cl)N(CO)C2=O)c1cc(F)cc(C(F)(F)F)c1 (stereo not shown) [Compound I-1342]
1000 to 10000 | O=C1N[C@H](c2cc(F)ccc2Cl)c2c(NC(=O)N3CCc4cc(F)ccc43)cc(-c3cnn(C(F)F)c3)cc21 (single isomer, unassigned) [Compound I-2356]
100 to 500 | O=C1NC(c2cccc(F)c2F)c2c(NC(=O)c3csc4ccccc34)ccnc21 (stereo not shown) [Compound I-15, N-(5-(2,3-Difluorophenyl)-7-oxo-6,7-dihydro-5H-pyrrolo[3,4-b]pyridin-4-yl)benzo[b]thiophene-3-carboxamide]
≤ 100 | Cn1cncc1-c1cc(NC(=O)c2cc(F)cc(C(F)(F)F)c2)c2c(c1)C(=O)NC2c1cc(F)ccc1Cl (stereo not shown) [Compound I-1272]
≤ 100 | CN(C)S(=O)(=O)Cc1cc(NC(=O)c2cc(F)cc(C(F)(F)F)c2)c2c(c1)C(=O)NC2c1cc(F)ccc1Cl (stereo not shown) [Compound I-1275]
100 to 500 | CC1(C)CC(COc2cc(NC(=O)c3cc(F)cc(C(F)(F)F)c3)c3c(c2)C(=O)NC3c2cc(F)ccc2Cl)O1 (stereo not shown) [Compound I-873]
1000 to 10000 | O=C(Nc1cc(Br)cc2c1[C@@H](c1c(F)cccc1Cl)NC2=O)c1cc(F)cc(C(F)(F)F)c1 [Compound I-679]

IC50 [nM] | Compound
10000 to 100000 | COc1ccc(C(=O)Nc2cc(Br)cc3c2C(c2cc(F)ccc2Cl)NC3=O)cc1 (stereo not shown) [Compound I-465]
10000 to 100000 | O=C1N[C@@H](c2cc(F)ccc2Cl)c2c(NC(=O)N3CCC[C@@](O)(C(F)(F)F)C3)cccc21 (single isomer, unassigned) [Compound I-2116]
1000 to 10000 | O=C1NC(c2cc(F)ccc2Cl)c2c(Nc3nc4ccccc4[nH]3)cc(-c3ccc4ncnn4c3)cc21 (stereo not shown) [Compound I-1727]
1000 to 10000 | O=C1N[C@H](c2cc(F)ccc2Cl)c2c(NC(=O)N3C[C@](O)(C(F)(F)F)c4cc(F)ccc43)cc(-n3ccccc3=O)cc21 (single isomer, unassigned) [Compound I-2531]
≤ 100 | O=C1CC2(CCN(c3cc(NC(=O)c4cc(F)cc(C(F)(F)F)c4)c4c(c3)C(=O)NC4c3cc(F)ccc3Cl)C2)CN1 (stereo not shown) [Compound I-1267]
≤ 100 | N#Cc1cnn2ccc(-c3cc(NC(=O)c4cc(F)cc(C(F)(F)F)c4)c4c(c3)C(=O)N[C@H]4c3cc(F)ccc3Cl)cc12 [Compound I-1799]
≤ 100 | O=C(Nc1cc(-c2ccc3nc(C(F)F)cn3c2)cc2c1C(c1cc(F)ccc1Cl)NC2=O)c1cc(F)cc(C(F)(F)F)c1 (stereo not shown) [Compound I-1864]
10000 to 100000 | O=C1N[C@H](c2cc(F)ccc2Cl)c2c(NC(=O)N3C[C@H](O)C[C@@H]3CC(F)(F)F)cccc21 (racemic) [Compound I-2163]
1000 to 10000 | O=C(Nc1cc(-c2ccc3nc(C(F)F)nn3c2)cc2c1[C@@H](c1cc(F)ccc1Cl)NC2=O)c1cc(F)cc(C(F)(F)F)c1 [Compound I-1986]
≤ 100 | Cc1nc2cc(-c3cc(NC(=O)c4cc(F)cc(C(F)(F)F)c4)c4c(c3)C(=O)NC4c3cc(F)ccc3Cl)ccc2o1 (stereo not shown) [Compound I-1036]
1000 to 10000 | CCC[C@]1(O)CN(C(=O)Nc2cccc3c2[C@@H](c2cc(F)ccc2Cl)NC3=O)c2ccc(F)cc21 (single isomer, unassigned) [Compound I-2456]
1000 to 10000 | O=C1N[C@@H](c2cc(F)ccc2Cl)c2c(NC(=O)[C@H]3CC(C(F)(F)F)C[C@@H](O)C3)cc(Br)cc21 (single isomer, unassigned) [Compound I-2152]
1000 to 10000 | Cn1nccc1Nc1cc(NC(=O)c2cc(F)cc(C(F)(F)F)c2)c2c(c1)C(=O)N[C@@H]2c1cc(F)ccc1Cl [Compound I-1145]
1000 to 10000 | C[C@H](C#N)Cn1cc(-c2cc(NC(=O)N3C[C@@H](O)c4cc(F)ccc43)c3c(c2)C(=O)N[C@H]3c2cc(F)ccc2Cl)cn1 (single isomer, unassigned) [Compound I-2502]
100 to 500 | O=C(Nc1cc(C#CC2CC(F)(F)C2)cc2c1C(c1cc(F)ccc1Cl)NC2=O)c1cc(F)cc(C(F)(F)F)c1 (stereo not shown) [Compound I-1194]
10000 to 100000 | O=C1N[C@H](c2cc(F)ccc2Cl)c2c(NC(=O)N3C[C@@H](O)c4cc(F)ccc43)cccc21 (single isomer, unassigned) [Compound I-2129]
≤ 100 | O=C(Nc1cc(CC2(O)CC2)cc2c1C(c1cc(F)ccc1Cl)NC2=O)c1cc(F)cc(C(F)(F)F)c1 (stereo not shown) [Compound I-644]
10000 to 100000 | O=C1NC(c2cc(F)ccc2Cl)c2c(NC(=O)N3CCC(F)C3)cc(Br)cc21 (stereo not shown) [Compound I-542]
≤ 100 | CC(C)(C#N)c1cc(NC(=O)c2cc(F)cc(C(F)(F)F)c2)c2c(c1)C(=O)NC2c1cc(F)ccc1Cl (stereo not shown) [Compound I-1268]
10000 to 100000 | O=C1NC(c2cc(F)ccc2Cl)c2c(NC(=O)N3CCC3c3ccccc3)cccc21 (stereo not shown) [Compound I-2321]
1000 to 10000 | CC[C@@]1(O)CN(C(=O)Nc2cccc3c2[C@H](c2cc(F)ccc2Cl)NC3=O)c2ccc(F)cc21 (single isomer, unassigned) [Compound I-2463]

IC50 [nM] | Compound
10000 to 100000 | O=C1N[C@@H](c2cc(F)ccc2Cl)c2c(NC(=O)N3CCOCC(F)(F)C3)cc(Br)cc21 (single isomer, unassigned) [Compound I-2242]
100 to 500 | Cc1c(-c2cc(NC(=O)c3cc(F)cc(Cl)c3)c3c(n2)C(=O)NC3c2cc(F)ccc2Cl)cnn1C (stereo not shown) [Compound I-381]
1000 to 10000 | Cc1ccccc1C1NC(=O)c2c(N3CCOCC3)ncc(NC(=O)c3cc(F)cc(C(F)(F)F)c3)c21 (stereo not shown) [Compound I-253]
100 to 500 | Cc1ccccc1C1NC(=O)c2cc(NS(C)(=O)=O)cc(NC(=O)c3cc(F)cc(C(F)(F)F)c3)c21 (stereo not shown) [Compound I-56]
≤ 100 | O=C(Nc1cc(-c2cc3ncnn3cc2F)cc2c1C(c1cc(F)ccc1Cl)NC2=O)c1cc(F)cc(C(F)(F)F)c1 (stereo not shown) [Compound I-1828]
10000 to 100000 | O=C(Nc1cccc2c1C(C1CCC1)NC2=O)c1cc(F)cc(C(F)(F)F)c1 (stereo not shown) [Compound I-1731]
10000 to 100000 | CN(C)c1cc(NC(=O)N2C[C@](O)(C(F)(F)F)c3cc(F)ccc32)c2c(n1)C(=O)N[C@@H]2c1cc(F)ccc1Cl (single isomer, unassigned) [Compound I-2692]
1000 to 10000 | O=C1NC(c2cc(F)ccc2Cl)c2c(NC(=O)c3c[nH]c4cccc(Cl)c34)cc(Br)cc21 (stereo not shown) [Compound I-956]
≤ 100 | N#Cc1cc(NC(=O)c2cc(F)cc(Cl)c2)c2c(c1)C(=O)NC2c1cc(F)ccc1Cl (stereo not shown) [Compound I-531]
10000 to 100000 | CN(C)S(=O)(=O)c1cc(-c2ccc3ncnn3c2)cc2c1[C@@H](c1cc(F)ccc1Cl)NC2=O [Compound I-2098]
10000 to 100000 | O=C1NC(c2cc(F)ccc2Cl)c2c(NC(=O)N3CCc4ccc(=O)[nH]c43)cc(Br)cc21 (stereo not shown) [Compound I-1429]
≤ 100 | Cn1c(=O)[nH]c2ccc(-c3cc(NC(=O)c4cc(F)cc(C(F)(F)F)c4)c4c(c3)C(=O)NC4c3cc(F)ccc3Cl)cc21 (stereo not shown) [Compound I-1044]
10000 to 100000 | O=C1NC(c2cc(F)ccc2Cl)c2c(NC(=O)[C@@H]3CC[C@H](O)C3)cc(Br)cc21 (single isomer, unassigned) [Compound I-1975]
1000 to 10000 | N#Cc1ccccc1C1NC(=O)c2cccc(NC(=O)c3nsc4ccccc34)c21 (stereo not shown) [Compound I-197]
10000 to 100000 | O=C1N[C@H](c2cc(F)ccc2Cl)c2c(NC(=O)N3CCC[C@](O)(C(F)(F)F)C3)cccc21 (single isomer, unassigned) [Compound I-2114]
100 to 500 | Cc1ncc(-c2cc(NC(=O)c3cc(F)cc(C(F)(F)F)c3)c3c(c2)C(=O)NC3c2cc(F)ccc2Cl)c(C)n1 (stereo not shown) [Compound I-1092]
1000 to 10000 | NC(=O)C(C(=O)Nc1cc(-c2ccc3ncnn3c2)cc2c1C(c1cc(F)ccc1Cl)NC2=O)c1ccccc1 (stereo not shown) [Compound I-1787]
≤ 100 | O=C(Nc1cc(OC2CCOCC2)cc2c1C(c1cc(F)ccc1Cl)NC2=O)c1cc(F)cc(C(F)(F)F)c1 (stereo not shown) [Compound I-1135]
1000 to 10000 | O=C1NC(c2cc(F)ccc2Cl)c2c(NC(=O)c3cc(C(F)(F)F)cc(F)c3C3(O)COC3)cccc21 (stereo not shown) [Compound I-1114]
